According to patent US5877185A, “Synergistic compositions useful as anti-tumor agents” (priority 1995, dated 1999):
Read-outs that look alike come from different tables or passages of the source.

Tests used:
[1] = system: MT-2 cells; assay: effectiveness on human T-lymphoblastoid leukemia cells, MT-2; type: cell-based
Protocol: IV. Effectiveness of 4-(halogen)-3-nitro-benzamide compounds as tested with human T-lymphoblastoid leukemia cell lines in culture.
Cells (MT-2 cells, or, in case of 3-fluoro-4-nitro-benzamide, CEM-4 cells) were seeded at a density of 0.1×10^5 /ml; the drugs were added at the time of seeding. The cultures were incubated at 37° C. in a 5% CO2 atmosphere and the cells numbers were monitored by hemacytometer counting in 24 hr intervals.

[2] = system: E ras cells; assay: cytostatic and cytocidal activity; type: cell-based, bovine; conditions: Bos taurus, average of three trials
Excerpt: pADPRT ligands that oxidize CCHC zinc fingers are not unique inhibitors of pADPRT. […] Hakam et al., FEBS Lett. 193:1-4 (1991). These ligands bind non-covalently to the nicotinamide site and internal DNA-seeking domains of pADPRT. Bauer et al., manuscript in preparation (1994). In contrast, CCHC-oxidizing ligands also bind non-covalently to the nicotinamide site, but initially attack the F1 zinc finger oxidatively. Id. […] Id. […] U.S. Ser. No. 08/076,313 filed Jun. 11, 1993.
Each value is the average of three trials. Each trial deviated from the average by no more than twenty percent. […] Another isomer of the iodo-nitro-benzamide series, 2-iodo-4-nitrobenzamide had no effect at the concentrations given above.

[3] = system: Du 145; assay: cytotoxicity of INO2 BA with and without BSO, Du 145; type: cell-based; conditions: Homo sapiens
Protocol: (§1) The concentration of BSO was 1 mM for all cell lines except HT 144, where the concentration was 0.25 mM. Cells were seeded in the recommended growth medium at a density of 1.5×10^4 cell/cm^2 into 2 cm^2 wells. Drugs were added simultaneously 4 hours after seeding, and incubation was continued for 48 hours at 37° C. in a 5% CO2 atmosphere. For assessment of drug effects cells were detached by trypsinization and counted in a hemacytometer.
(§2) Cell lines Nos. 1-4 were obtained from Dr. C. Benz, University of California, San Francisco. MDA 468 and MCF-7 human mammary cancer lines, MCF-7-B-ADR drug-resistant mammary cancer line, Du 145 drug-resistant human prostate cancer line, HT 144 human melanoma cell line, Hep-G2 human hepatocellular carcinoma line, and PC-12 rat pheochromocytoma line were obtained from the University of California Cell Culture Facility.

[4] = system: HT 144; assay: cytotoxicity of INO2 BA with and without BSO, HT 144; type: cell-based; conditions: Homo sapiens
Protocol: as §1, §2

[5] = system: HL 60; assay: cytotoxicity of INO2 BA with and without BSO, HL 60; type: cell-based; conditions: Homo sapiens, INO2 BA alone, 48 hours
Protocol: as §1, §2

[6] = system: Molt-4; assay: cytotoxicity of INO2 BA with and without BSO, Molt-4; type: cell-based; conditions: Homo sapiens, INO2 BA alone, 48 hours
Protocol: as §1, §2

[7] = system: U 937; assay: cytotoxicity of INO2 BA with and without BSO, U 937; type: cell-based; conditions: Homo sapiens, INO2 BA alone, 48 hours
Protocol: as §1, §2

[8] = non-toxicity in hamsters, intraperitoneal; type: in vivo
[9] = system: SIV-infected CEM ×174 cells; assay: viability of SIV-infected CEM ×174 cells, tetrazolium (MTT) assay; type: cell-based, human; conditions: day 10
Excerpt: In both (A) and (B) the ordinate represents cell viability on day 10 of the assay and the abscissa represents the concentration of INO2 BA in the absence of BSO (FIG. 4A), and in the presence of BSO (FIG. 4B).
CEM ×174 cells (3×10^5 /ml) were infected with 3.75 TCID50 /ml (50% tissue culture infectious dosage per ml of cell suspension) stock solution of SIVmac239 or virus isolates from SIVmac239-infected rhesus macaques on day 0. Uniform infection of cells was ensured by the infection of one cell population only per virus preparation. Three days post-infection, the cells were distributed (500 μl/well) into individual wells of a 24-well plate. Fresh medium containing INO2 BA concentrations ranging from 0 to 300 μM and/or BSO concentrations ranging from 0 to 0.25 mM were added to establish final 1-ml reaction volumes, and the cultures were further incubated for 4 days. […] Cell viability and virus titers in the supernatant were determined on day 10 (3 days after the addition of new cells) by the tetrazolium (MTT) method of Hansen et al., J. Immunol. […]
The viability of infected and uninfected cell cultures was determined by the method of Hansen et al., J. Immunol. […] Following overnight incubation at 37° C., optical absorbance were measured at 570 nm using a microtiter plate reader (Molecular Devices Corp., Sunnyvale, Calif.).

[10] = system: L 1210 cells; assay: cytotoxic effect of IABP and INO2 BA, alone and combined, on L 1210 cell growth; type: cell-based, murine; conditions: Mus musculus, L1210, 72 h; INO2 BA 64 μM, three days; read-out: decrease of L 1210 cell proliferation
Protocol: 64 μM INO2 BA decreased L 1210 cell proliferation by approximately 80% over a three day growth period.

[11] = system: HIV in intact human macrophages; conditions: Kun et al., Abstract 422A; cited from earlier work
[12] = system: HIV-1 (MN strain); assay: infectivity of NOBA-treated HIV-1 virions; type: cell-based; conditions: 3000 or 6000 μM NOBA, 37° C.
[13] = reduction by GSH and ascorbate in in vitro chemical tests; type: physicochemical
[14] = system: leukemic and other malignant human cells; conditions: cited from earlier work
[15] = system: normal bone marrow progenitor cells; conditions: tumoricidal concentrations; cited from earlier work

NC(=O)c1ccc(I)c([N+](=O)[O-])c1 [INO2 BA, 4-iodo-3-nitrobenzamide]
IC50 ([1]; Homo sapiens, MT2, concentration decreasing cell viability to 50% of control, 48 h incubation, read-out: I50): 70 µM
LD100 ([1]; zero viability after 48 hours of incubation): 190
IC50 ([2]; E ras cells, read-out: Cytostatic Effect I50): 60 µM
IC50 ([2]; with 0.8 mM BSO, read-out: Cytocidal Effect I50): 4 µM
IC100 ([3]; DU-145, 48 h, read-out: LD100): 250 µM
IC50 ([3]; DU-145, INO2 BA alone, 48 hours, read-out: I50): 120 µM
IC100 ([4]; HT-144, 48 h, read-out: LD100): 200 µM
IC50 ([4]; HT-144, INO2 BA alone, 48 hours, read-out: I50): 100 µM
IC50 ([5]; read-out: I50): 70 µM
IC100 ([5]; read-out: LD100): 125 µM
IC50 ([6]; read-out: I50): 70 µM
IC100 ([6]; read-out: LD100): 196 µM
IC50 ([7]; read-out: I50): 65 µM
IC100 ([7]; read-out: LD100): 150 µM
toxic effects ([8]; 200 mg/kg intraperitoneally daily for 12 days): no toxic effects
toxic effects ([8]; 200 mg/kg intraperitoneally daily for 14 days, twelve hamsters): without toxic effects
apparent cell viability [9]: protected
inhibition at 64 µM [10]: ~80%
inhibition of HIV replication [11]: readily inhibited

NC(=O)c1cccc(N=O)c1 [NOBA, 3-nitrosobenzamide]
infectivity [12]: complete loss of infectivity
reduction to the corresponding hydroxyl amines [13]: rapidly reduced
suppression of proliferation [14]: completely suppressed
effect on normal bone marrow progenitor cells [15]: relatively harmless
